Measured values as given in article PMC9694334, “Synthesis and Biological Evaluation of a Fused Structure of Indolizine and Pyrrolo[1,2-c]pyrimidine: Identification of Its Potent Anticancer Activity against Liver Cancer Cells” (Pharmaceuticals, 2022).

Assays:
Huh7 cells = assay: Cell viability assay (MTS) in Huh7 cells; assay type: cell-based; details: Homo sapiens, Huh-7, mean, n = 5, 72 h for 5r (Figure 2)
Procedure: (§1) HepG2, Huh7, H1299, HT29, AGS and A549 cells were purchased from the Korean Cell Line Bank (Seoul, Korea) and HaCaT cells were obtained from Prof. Sohee Kwon (Yonsei University, Korea). Liver cancer cells (HepG2), human keratinocyte cells (HaCaT), and lung cancer cells (A549) were grown in DMEM high-glucose medium, liver cancer cells (Huh7) and non-small cell lung cancer cells (H1299) were grown in RPMI 1640, and gastric cancer cells (AGS) were grown in Coon’s modified F12 medium. All media were supplemented with 10% FBS, 100 Units/mL penicillin, and 100 μg/mL streptomycin. All cells were incubated at 37 °C, 5% CO2 and 95% humidity.
(§2) Cell viability assay was conducted using Cell Titer 96® AQueous One Solution Cell proliferation Assay kit (Promega, Madison, WI, USA). Five cancer cells and HaCaT cells were plated in 96-well microplates with growth medium for 24 h. When cell confluency reached ~30%, cells were treated with DMSO (vehicle) and test compounds. The medium and test compounds were replaced every 24 h. To measure cell viability, the cells were incubated with MTS solution for 1 h. The absorbance was measured by using Infinite M200 microplate reader (Tecan, Männedorf, Switzerland) at 490 nm.
(§3) Figure 2 Effect of 5r on cell viability in HepG2, Huh7, AGS, H1299, A549, HaCaT, NIH3T3, and HEK293T cells. (A–H) HepG2, Huh7, AGS, H1299, A549, HaCaT, NIH3T3, and HEK293T cells were cultured with 5r at the indicated concentrations for 72 h, and medium was replaced every 24 h with freshly added 5r. Cell viability was measured by MTS analysis (mean ± S.D., n = 5). * p < 0.05, ** p < 0.01, *** p < 0.001.

HepG2 cells = assay: Cell viability assay (MTS) in HepG2 cells; assay type: cell-based; details: mean; for IC50: Homo sapiens, MTS, n = 5, 72 h for 5r (Figure 2); for % Inhibition of Cell Viability at 10 μM HepG2: n = 3
Procedure: as §1, §2, §3

HaCaT cells = assay: Cell viability assay (MTS) in HaCaT cells; assay type: cell-based, human; details: Homo sapiens, mean, n = 5
Procedure: as §1, §2, §3

HT29 cells = assay: Cell viability assay (MTS) in HT29 cells; assay type: cell-based; details: mean, n = 3
Procedure: as §1, §2

H1299 cells = assay: Cell viability assay (MTS) in H1299 cells; assay type: cell-based; details: 10 μM, mean, n = 3
Procedure: as §1, §2, §3

AGS cells = assay: Cell viability assay (MTS) in AGS cells; assay type: cell-based; details: 10 μM, mean, n = 3
Procedure: as §1, §2, §3

A549 cells = assay: Cell viability assay (MTS) in A549 cells; assay type: cell-based; details: 10 μM, mean, n = 3
Procedure: as §1, §2, §3

| SMILES | IC50 (Huh7 cells) | IC50 (HepG2 cells) | IC50 (HaCaT cells) | % Inhibition of Cell Viability at 10 μM HT29 (HT29 cells) | % Inhibition of Cell Viability at 10 μM H1299 (H1299 cells) | % Inhibition of Cell Viability at 10 μM AGS (AGS cells) | % Inhibition of Cell Viability at 10 μM A549 (A549 cells) | % Inhibition of Cell Viability at 10 μM HepG2 (HepG2 cells) |
| --- | --- | --- | --- | --- | --- | --- | --- | --- |
| COc1cc(O)c(-c2nc3c(c(C#N)c4ccccn43)c3cccn23)cc1OC [Compound 5aa, 5-(2-Hydroxy-4,5-dimethoxyphenyl)pyrrolo[1′,2′:1,6]pyrimido[5,4-b]indolizine-12-carbonitrile] | 0.87 µM | 1.17 µM | 2.21 µM | – | – | – | – | – |
| COc1cccc(-c2nc3c(c(C#N)c4ccccn43)c3cccn23)c1 [Compound 5q, 5-(3-Methoxyphenyl)pyrrolo[1′,2′:1,6]pyrimido[5,4-b]indolizine-12-carbonitrile] | 1.45 µM | 1.31 µM | 8.3 µM | – | – | – | – | – |
| N#Cc1c2c3[nH]c4ccccc4c3c(-c3cccs3)nc2n2ccccc12 [Compound 10d, 7-(Thiophen-2-yl)-12H-indolizino[2′,3′:5,6]pyrido[4,3-b]indole-13-carbonitrile] | 0.6 µM | 2.27 µM | 0.81 µM | – | – | – | – | – |
| N#Cc1c2c3cccn3c(-c3cccnc3)nc2n2ccccc12 [Compound 5o, 5-(Pyridin-3-yl)pyrrolo[1′,2′:1,6]pyrimido[5,4-b]indolizine-12-carbonitrile] | 1.47 µM | 2 µM | 3.98 µM | – | – | – | – | – |
| N#Cc1c2c3cccn3c(-c3ncc[nH]3)nc2n2ccccc12 [Compound 5x, 5-(1H-Imidazol-2-yl)pyrrolo[1′,2′:1,6]pyrimido[5,4-b]indolizine-12-carbonitrile] | 7.85 µM | 3.52 µM | 24.1 µM | – | – | – | – | – |
| N#Cc1c2c3cccn3c(-c3ccccc3Br)nc2n2ccccc12 [Compound 5w, 5-(2-Bromophenyl)pyrrolo[1′,2′:1,6]pyrimido[5,4-b]indolizine-12-carbonitrile] | 2.72 µM | 1.75 µM | 9.53 µM | – | – | – | – | – |
| N#Cc1c2c3cccn3c(-c3ccccc3)nc2n2ccccc12 [Compound 5a, 5-Phenylpyrrolo[1′,2′:1,6]pyrimido[5,4-b]indolizine-12-carbonitrile] | – | – | – | <25% | 81.5% | <25% | <25% | 85.0% |
| N#Cc1c2c3cccn3c(-c3ccccc3Cl)nc2n2ccccc12 [Compound 5u, 5-(2-Chlorophenyl)pyrrolo[1′,2′:1,6]pyrimido[5,4-b]indolizine-12-carbonitrile] | 3.95 µM | 2.1 µM | 11.5 µM | – | – | – | – | – |
| COc1ccc(-c2nc3c(c(C#N)c4ccccn43)c3cccn23)cc1 [Compound 5b, 5-(4-Methoxyphenyl)pyrrolo[1′,2′:1,6]pyrimido[5,4-b]indolizine-12-carbonitrile] | – | – | – | <25% | 79.1% | <25% | 25.5% | 57.0% |
| COc1ccccc1-c1nc2c(c(C#N)c3ccccn32)c2cccn12 [Compound 5p, 5-(2-Methoxyphenyl)pyrrolo[1′,2′:1,6]pyrimido[5,4-b]indolizine-12-carbonitrile] | 2.25 µM | 3.42 µM | 16.2 µM | – | – | – | – | – |
| COc1ccc(O)c(-c2nc3c(c(C#N)c4ccccn43)c3cccn23)c1 [Compound 5y, 5-(2-Hydroxy-5-methoxyphenyl)pyrrolo[1′,2′:1,6]pyrimido[5,4-b]indolizine-12-carbonitrile] | 0.64 µM | 0.79 µM | 2.25 µM | – | – | – | – | – |
| N#Cc1c2c3cccn3c(-c3cccc4ccccc34)nc2n2ccccc12 [Compound 5g, 5-(Naphthalen-1-yl)pyrrolo[1′,2′:1,6]pyrimido[5,4-b]indolizine-12-carbonitrile] | – | – | – | <25% | 82.8% | <25% | <25% | 49.2% |
| COc1ccc(-c2nc3c(c(C#N)c4ccccn43)c3[nH]c4ccccc4c23)cc1 [Compound 10b, 7-(4-Methoxyphenyl)-12H-indolizino[2′,3′:5,6]pyrido[4,3-b]indole-13-carbonitrile] | – | – | – | <25% | <25% | <25% | <25% | <25% |
| N#Cc1c2c3cccn3c(-c3cc4ccccc4[nH]3)nc2n2ccccc12 [Compound 5l, 5-(1H-Indol-2-yl)pyrrolo[1′,2′:1,6]pyrimido[5,4-b]indolizine-12-carbonitrile] | – | – | – | 58.6% | 62.3% | <25% | 46.9% | 99.2% |
| N#Cc1c2c3cccn3c(-c3ccco3)nc2n2ccccc12 [Compound 5m, 5-(Furan-2-yl)pyrrolo[1′,2′:1,6]pyrimido[5,4-b]indolizine-12-carbonitrile] | – | – | – | <25% | 81.9% | <25% | <25% | 64.0% |
| COc1cc(-c2nc3c(c(C#N)c4ccccn43)c3cccn23)cc(OC)c1OC [Compound 5e, 5-(3,4,5-Trimethoxyphenyl)pyrrolo[1′,2′:1,6]pyrimido[5,4-b]indolizine-12-carbonitrile] | – | – | – | <25% | 89.0% | <25% | 25.3% | 37.7% |
| N#Cc1c2c3cccn3c(-c3ccc4ccccc4c3)nc2n2ccccc12 [Compound 5f, 5-(Naphthalen-2-yl)pyrrolo[1′,2′:1,6]pyrimido[5,4-b]indolizine-12-carbonitrile] | – | – | – | <25% | 88.4% | <25% | <25% | 92.5% |
| N#Cc1c2c3cccn3c(-c3ccc(Cl)cc3)nc2n2ccccc12 [Compound 5h, 5-(4-Chlorophenyl)pyrrolo[1′,2′:1,6]pyrimido[5,4-b]indolizine-12-carbonitrile] | – | – | – | 26.9% | 80.0% | 31.0% | 52.5% | 88.4% |
